Measured values published in US12723063B2, “GIPR-agonist compounds” (Eli Lilly and Company, priority 2019, dated 2026).
*1 amine or outer side, *2 acyl side, *3 side chain or, on linkers, in order; H or OH if unused. Where a SMILES comes first, the peptide text is derived from it. Side-chain parts run from the residue outwards. [ ]: non-standard residue; d: D form. The star is where a group is joined. C20 diacid = O=C(O)CCCCCCCCCCCCCCCCCCC(=O)*; C18 diacid = O=C(O)CCCCCCCCCCCCCCCCC(=O)*; γGlu = O=C(O)[C@H](CCC(=O)[*:2])N[*:1]; 4Pal = N[C@@H](Cc1ccncc1)C(=O)O; αMeL = CC(C)C[C@](C)(N)C(=O)O; Orn = NCCC[C@H](N)C(=O)O; AEEA = NCCOCCOCC(=O)O; Aib = CC(C)(N)C(=O)O

Experiments:
human GIPR = biological target: T1, human GIPR (Homo sapiens, UniProt P48546); assay: [125I]-GIP binding, SPA with WGA beads, 0.1% bacitracin; conditions: geometric mean, read-out: hGIPR Ki
T1 construct: expressed in transfected cells; crude membranes
T1 sequence (P48546 22-466): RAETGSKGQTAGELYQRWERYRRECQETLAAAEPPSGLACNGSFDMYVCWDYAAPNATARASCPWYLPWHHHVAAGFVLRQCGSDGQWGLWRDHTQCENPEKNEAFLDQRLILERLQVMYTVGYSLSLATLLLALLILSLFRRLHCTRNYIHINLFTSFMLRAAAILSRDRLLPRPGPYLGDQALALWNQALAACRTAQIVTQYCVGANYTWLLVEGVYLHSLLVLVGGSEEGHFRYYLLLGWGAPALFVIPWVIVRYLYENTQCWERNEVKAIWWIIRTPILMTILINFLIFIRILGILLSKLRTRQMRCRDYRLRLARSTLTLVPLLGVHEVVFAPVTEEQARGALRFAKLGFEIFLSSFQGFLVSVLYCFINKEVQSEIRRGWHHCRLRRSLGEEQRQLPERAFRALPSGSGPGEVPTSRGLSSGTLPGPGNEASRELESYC
Method in brief: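 Ki values are geometric means (SEM, n independent days), derived from four-parameter nonlinear regression of IC50. Membranes came from hGIPR-expressing CHO cells.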

human GLP-1R = biological target: T2, human GLP-1R (Homo sapiens, UniProt P43220); assay: [125I]-GLP-1 binding, SPA with WGA beads, 0.1% bacitracin; conditions: geometric mean, read-out: hGLP1R Ki
T2 construct: expressed in transfected cells; crude membranes
Method in brief: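 Binding buffer was 25 mM HEPES pH 7.4 with 2.5 mM CaCl2, 1 mM MgCl2, 0.1% (w/v) bacitracin, 0.003% Tween-20 and EDTA-free protease inhibitors. Four-parameter regression gave IC50, converted to Ki (geometric mean, SEM, n independent days).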

T2 sequence (P43220 24-463): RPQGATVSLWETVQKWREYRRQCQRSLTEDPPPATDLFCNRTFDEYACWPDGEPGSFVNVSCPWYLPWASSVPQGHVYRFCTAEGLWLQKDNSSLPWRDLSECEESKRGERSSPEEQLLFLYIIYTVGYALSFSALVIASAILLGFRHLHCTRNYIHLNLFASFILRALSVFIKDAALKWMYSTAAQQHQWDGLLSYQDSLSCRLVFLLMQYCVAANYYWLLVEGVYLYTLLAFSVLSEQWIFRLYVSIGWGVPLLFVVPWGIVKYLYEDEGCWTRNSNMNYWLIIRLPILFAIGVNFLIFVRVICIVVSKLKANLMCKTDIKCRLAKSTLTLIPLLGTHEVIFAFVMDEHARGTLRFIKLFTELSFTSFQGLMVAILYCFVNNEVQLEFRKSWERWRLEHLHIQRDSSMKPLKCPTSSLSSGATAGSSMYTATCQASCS

| Compound | Ki (human GIPR) | Ki (human GLP-1R) |
| --- | --- | --- |
| CC[C@H](C)[C@H](NC(=O)[C@H](CCCCN)NC(=O)[C@H](CC(=O)O)NC(=O)[C@H](CC(C)C)NC(=O)[C@](C)(CC(C)C)NC(=O)[C@@H](NC(=O)[C@H](CO)NC(=O)[C@H](Cc1ccc(O)cc1)NC(=O)[C@H](CC(=O)O)NC(=O)[C@H](CO)NC(=O)[C@@H](NC(=O)[C@H](Cc1ccccc1)NC(=O)[C@@H](NC(=O)CNC(=O)[C@H](CCC(=O)O)NC(=O)C(C)(C)NC(=O)[C@@H](N)Cc1ccc(O)cc1)[C@@H](C)O)[C@@H](C)CC)[C@@H](C)CC)C(=O)N[C@@H](Cc1c[nH]cn1)C(=O)N[C@@H](CCC(N)=O)C(=O)NC(C)(C)C(=O)N[C@@H](CCC(=O)O)C(=O)N[C@@H](Cc1ccccc1)C(=O)N[C@H](C(=O)N[C@@H](CCC(=O)O)C(=O)N[C@@H](Cc1ccncc1)C(=O)N[C@@H](CCCCNC(=O)COCCOCCNC(=O)COCCOCCNC(=O)CC[C@H](NC(=O)CCCCCCCCCCCCCCCCCCC(=O)O)C(=O)O)C(=O)N[C@@H](CC(C)C)C(=O)N[C@@H](CCC(=O)O)C(=O)NCC(=O)NCC(=O)N1CCC[C@H]1C(=O)N[C@@H](CO)C(=O)N[C@@H](CO)C(=O)NCC(=O)N[C@@H](C)C(=O)N1CCC[C@H]1C(=O)N1CCC[C@H]1C(=O)N1CCC[C@H]1C(=O)N[C@@H](CO)C(N)=O)C(C)C [Example 100] (H-Y[Aib]EGTFISDYSI[αMeL]LDKIHQ[Aib]EFVE[4Pal]K([AEEA-AEEA-γGlu-C20 diacid])LEGGPSSGAPPPS-NH2) | 0.0674 nM | > 913 nM |
| CC[C@H](C)[C@H](NC(=O)[C@H](CCCN)NC(=O)[C@H](CC(=O)O)NC(=O)[C@H](CC(C)C)NC(=O)[C@](C)(CC(C)C)NC(=O)[C@@H](NC(=O)[C@H](CO)NC(=O)[C@H](Cc1ccc(O)cc1)NC(=O)[C@H](CC(=O)O)NC(=O)[C@H](CO)NC(=O)[C@@H](NC(=O)[C@H](Cc1ccccc1)NC(=O)[C@@H](NC(=O)CNC(=O)[C@H](CCC(=O)O)NC(=O)C(C)(C)NC(=O)[C@@H](N)Cc1ccc(O)cc1)[C@@H](C)O)[C@@H](C)CC)[C@@H](C)CC)C(=O)N[C@@H](Cc1c[nH]cn1)C(=O)N[C@@H](CCC(N)=O)C(=O)NC(C)(C)C(=O)N[C@@H](CC(=O)O)C(=O)N[C@@H](Cc1ccccc1)C(=O)N[C@H](C(=O)N[C@H](CCC(=O)O)C(=O)N[C@@H](Cc1ccc(O)cc1)C(=O)N[C@@H](CCCCNC(=O)COCCOCCNC(=O)COCCOCCNC(=O)CC[C@H](NC(=O)CCCCCCCCCCCCCCCCCCC(=O)O)C(=O)O)C(=O)N[C@@H](CC(C)C)C(=O)N[C@@H](CCC(=O)O)C(=O)NCC(=O)NCC(=O)N1CCC[C@H]1C(=O)N[C@@H](CO)C(=O)N[C@@H](CO)C(=O)NCC(=O)N[C@@H](C)C(=O)N1CCC[C@H]1C(=O)N1CCC[C@H]1C(=O)N1CCC[C@H]1C(=O)N[C@@H](CO)C(N)=O)C(C)C [Example 101] | 0.139 nM | > 913 nM |
| CC[C@H](C)[C@H](NC(=O)[C@H](CCCN)NC(=O)[C@H](CC(=O)O)NC(=O)[C@H](CC(C)C)NC(=O)[C@](C)(CC(C)C)NC(=O)[C@@H](NC(=O)[C@H](CO)NC(=O)[C@H](Cc1ccc(O)cc1)NC(=O)[C@H](CC(=O)O)NC(=O)[C@H](CO)NC(=O)[C@@H](NC(=O)[C@H](Cc1ccccc1)NC(=O)[C@@H](NC(=O)CNC(=O)[C@H](CCC(=O)O)NC(=O)C(C)(C)NC(=O)[C@@H](N)Cc1ccc(O)cc1)[C@@H](C)O)[C@@H](C)CC)[C@@H](C)CC)C(=O)N[C@@H](Cc1c[nH]cn1)C(=O)N[C@@H](CCC(N)=O)C(=O)NC(C)(C)C(=O)N[C@@H](CCC(=O)O)C(=O)N[C@@H](Cc1ccccc1)C(=O)N[C@H](C(=O)N[C@H](CCC(=O)O)C(=O)N[C@@H](Cc1ccc(O)cc1)C(=O)N[C@@H](CCCCNC(=O)COCCOCCNC(=O)COCCOCCNC(=O)CC[C@H](NC(=O)CCCCCCCCCCCCCCCCCCC(=O)O)C(=O)O)C(=O)N[C@@H](CC(C)C)C(=O)N[C@@H](CCC(=O)O)C(=O)NCC(=O)NCC(=O)N1CCC[C@H]1C(=O)N[C@@H](CO)C(=O)N[C@@H](CO)C(=O)NCC(=O)N[C@@H](C)C(=O)N1CCC[C@H]1C(=O)N1CCC[C@H]1C(=O)N1CCC[C@H]1C(=O)N[C@@H](CO)C(N)=O)C(C)C [Example 102] (H-Y[Aib]EGTFISDYSI[αMeL]LD[Orn]IHQ[Aib]EFV[dE]YK([AEEA-AEEA-γGlu-C20 diacid])LEGGPSSGAPPPS-NH2) | 0.164 nM | > 913 nM |
| CC[C@H](C)[C@H](NC(=O)[C@H](CCCN)NC(=O)[C@H](CC(=O)O)NC(=O)[C@H](CC(C)C)NC(=O)[C@](C)(CC(C)C)NC(=O)[C@@H](NC(=O)[C@H](CO)NC(=O)[C@H](Cc1ccc(O)cc1)NC(=O)[C@H](CC(=O)O)NC(=O)[C@H](CO)NC(=O)[C@@H](NC(=O)[C@H](Cc1ccccc1)NC(=O)[C@@H](NC(=O)CNC(=O)[C@H](CCC(=O)O)NC(=O)C(C)(C)NC(=O)[C@@H](N)Cc1ccc(O)cc1)[C@@H](C)O)[C@@H](C)CC)[C@@H](C)CC)C(=O)N[C@@H](Cc1c[nH]cn1)C(=O)N[C@@H](CCC(N)=O)C(=O)NC(C)(C)C(=O)N[C@@H](CC(=O)O)C(=O)N[C@@H](Cc1ccccc1)C(=O)N[C@H](C(=O)N[C@@H](CCC(=O)O)C(=O)N[C@@H](Cc1ccc(O)cc1)C(=O)N[C@@H](CCCCNC(=O)COCCOCCNC(=O)COCCOCCNC(=O)CC[C@H](NC(=O)CCCCCCCCCCCCCCCCC(=O)O)C(=O)O)C(=O)N[C@@H](CC(C)C)C(=O)N[C@@H](CCC(=O)O)C(=O)NCC(=O)NCC(=O)N1CCC[C@H]1C(=O)N[C@@H](CO)C(=O)N[C@@H](CO)C(=O)NCC(=O)N[C@@H](C)C(=O)N1CCC[C@H]1C(=O)N1CCC[C@H]1C(=O)N1CCC[C@H]1C(=O)N[C@@H](CO)C(N)=O)C(C)C [Example 103] (H-Y[Aib]EGTFISDYSI[αMeL]LD[Orn]IHQ[Aib]DFVEYK([AEEA-AEEA-γGlu-C18 diacid])LEGGPSSGAPPPS-NH2) | 0.0405 nM | > 913 nM |
| CC[C@H](C)[C@H](NC(=O)[C@H](CCCN)NC(=O)[C@H](CC(=O)O)NC(=O)[C@H](CC(C)C)NC(=O)[C@](C)(CC(C)C)NC(=O)[C@@H](NC(=O)[C@H](CO)NC(=O)[C@H](Cc1ccc(O)cc1)NC(=O)[C@H](CC(=O)O)NC(=O)[C@H](CO)NC(=O)[C@@H](NC(=O)[C@H](Cc1ccccc1)NC(=O)[C@@H](NC(=O)CNC(=O)[C@H](CCC(=O)O)NC(=O)C(C)(C)NC(=O)[C@@H](N)Cc1ccc(O)cc1)[C@@H](C)O)[C@@H](C)CC)[C@@H](C)CC)C(=O)N[C@@H](Cc1c[nH]cn1)C(=O)N[C@@H](CCC(N)=O)C(=O)NC(C)(C)C(=O)N[C@@H](CCC(=O)O)C(=O)N[C@@H](Cc1ccccc1)C(=O)N[C@H](C(=O)N[C@@H](CCC(=O)O)C(=O)N[C@@H](Cc1ccc(O)cc1)C(=O)N[C@@H](CCCCNC(=O)COCCOCCNC(=O)COCCOCCNC(=O)CC[C@H](NC(=O)CCCCCCCCCCCCCCCCCCC(=O)O)C(=O)O)C(=O)N[C@@H](CC(C)C)C(=O)N[C@@H](CCC(=O)O)C(=O)N[C@@H](C)C(=O)NCC(=O)N1CCC[C@H]1C(=O)N[C@@H](CO)C(=O)N[C@@H](CO)C(=O)NCC(=O)N[C@@H](C)C(=O)N1CCC[C@H]1C(=O)N1CCC[C@H]1C(=O)N1CCC[C@H]1C(=O)N[C@@H](CO)C(N)=O)C(C)C [Example 104] (H-Y[Aib]EGTFISDYSI[αMeL]LD[Orn]IHQ[Aib]EFVEYK([AEEA-AEEA-γGlu-C20 diacid])LEAGPSSGAPPPS-NH2) | 0.134 nM | > 910 nM |
